Experimental data published in PMC11783063, “Design, synthesis, and apoptotic antiproliferative action of new benzimidazole/1,2,3-triazole hybrids as EGFR inhibitors” (Frontiers in Chemistry, 2025).
Like-named read-outs stand apart in the source and are kept apart here.

Experiments:
[1] = tested on: A-549 (lung cancer cell line); experiment: Antiproliferative assay, A-549; format: cell-based, human; conditions: read-out: Antiproliferative activity IC50 ± SEM, A-549
Description: (§1) Refer to Supplementary Appendix A for more information.
(§2) DMSO (0.1%) was used as control.

[2] = tested on: MCF-10A normal human mammary gland epithelial cell line; conditions: 50 µM
Description: (§3) The medium in which cells were propagated contained Dulbecco's modified Eagle's medium (DMEM)/ Ham's F-12 medium (1:1) supplemented with epidermal growth factor (20 ng/mL), hydrocortisone (500 ng/mL), insulin (10 μg/mL), 2 mM glutamine and 10% foetal calf serum. After every 2-3 days, the cells were passed using trypsin ethylenediamine tetra acetic acid (EDTA). The cells were seeded at a density of 10^4 cells mL^-1 in flat-bottomed culture plates containing 96 wells each. After 24 h, medium was removed from the plates and the compounds in (in 0.1% DMSO) were added (in 200 μL medium to yield a final concentration of 0.1% v/v) to the wells of plates. A single compound was designated with four wells followed by incubation of plates for 96h at 37°C. After incubation, medium was removed completely from the plates followed by addition of MTT (0.4 mg/mL in medium) to each well and subsequent incubation of plates for 3h. MTT (along with the medium) was removed and DMSO (150μL) was added to each well of the culture plates, followed by vortexing and subsequent measurement of absorbance (at 540 nm) using microplate reader.

[3] = tested on: HT-29 (colon cancer cell line); experiment: Antiproliferative assay, HT-29; format: cell-based, human; conditions: read-out: Antiproliferative activity IC50 ± SEM, HT-29
Description: as §1, §2

[4] = tested on: four human cancer cell lines (HT-29, A-549, MCF-7, Panc-1); experiment: Antiproliferative assay, mean over four cancer cell lines (GI50); conditions: for IC50: read-out: Average IC50 (GI50)
Description: To calculate the total nuclear DNA, a fluorescent dye (propidium iodide, PI) is used which can attach to the DNA, thus offering a quick and precise technique. PI cannot pass through the cell membrane and its signal intensity can be considered as directly proportional to quantity of cellular DNA. Cells whose cell membranes are damaged or have changed permeability are counted as dead ones. […] The medium was removed; the compounds were added to the plates at 10 µM concentrations (in 0.1% DMSO) in triplicates, followed by incubation for 48 h. DMSO (0.1%) was used as control. After incubation, medium was removed followed by the addition of PI (25 µl, 50µg/mL in water/medium) to each well of the plates. At -80 °C, the plates were allowed to freeze for 24 h, followed by thawing at 25 °C. A fluorometer (Polar-Star BMG Tech) was used to record the readings at excitation and emission wavelengths of 530 and 620 nm for each well. The percentage cytotoxicity of compounds was calculated using the following formula:

[5] = tested on: MCF-7 (breast cancer cell line); experiment: Antiproliferative assay, MCF-7; format: cell-based, human; conditions: read-out: Antiproliferative activity IC50 ± SEM, MCF-7
Description: as §1, §2

[6] = tested on: Panc-1 (pancreatic cancer cell line); experiment: Antiproliferative assay, Panc-1; format: cell-based, human; conditions: read-out: Antiproliferative activity IC50 ± SEM, Panc-1
Description: as §1, §2

[7] = Cell viability assay (MTT) on MCF-10A normal cells; conditions: human, MCF-10A normal mammary gland epithelial cells
Description: as §3

EGFR = EGFR (Homo sapiens, UniProt P00533); experiment: EGFR-TK inhibitory assay
Description: To record autophosphorylation level, EGFR kinase assay was carried out on the basis of DELFIA/Time-Resolved Fluorometry. […] Each compound (10 µL) was incubated with recombinant enzyme (10 µL, 5 ng for EGFR, 1:80 dilution in 100 mM HEPES) for 10 min at 25 °C, subsequent to the addition of 5X buffer (10 µL, containing 2 mM MnCl2, 100 µM Na3VO4, 20 mM HEPES and 1 mM DTT) and ATP-MgCl2 (20 µL, containing 0.1 mM ATP and 50 mM MgCl2) and incubation for 1h. The negative and positive controls were included in each plate by the incubation of enzyme either with or without ATP-MgCl2. The liquid was removed after incubation and the plates were washed thrice using wash buffer. Europium-tagged antiphosphotyrosine antibody (75 µL, 400 ng) was added to each well followed by incubation of 1h and then washing of the plates using buffer. […] The autophosphorylation percentage inhibition by compounds was calculated using the following equation:

[8] = mean IC50 of A-549, MCF-7, Panc-1, HT-29

Sequence of EGFR (P00533 669-1210): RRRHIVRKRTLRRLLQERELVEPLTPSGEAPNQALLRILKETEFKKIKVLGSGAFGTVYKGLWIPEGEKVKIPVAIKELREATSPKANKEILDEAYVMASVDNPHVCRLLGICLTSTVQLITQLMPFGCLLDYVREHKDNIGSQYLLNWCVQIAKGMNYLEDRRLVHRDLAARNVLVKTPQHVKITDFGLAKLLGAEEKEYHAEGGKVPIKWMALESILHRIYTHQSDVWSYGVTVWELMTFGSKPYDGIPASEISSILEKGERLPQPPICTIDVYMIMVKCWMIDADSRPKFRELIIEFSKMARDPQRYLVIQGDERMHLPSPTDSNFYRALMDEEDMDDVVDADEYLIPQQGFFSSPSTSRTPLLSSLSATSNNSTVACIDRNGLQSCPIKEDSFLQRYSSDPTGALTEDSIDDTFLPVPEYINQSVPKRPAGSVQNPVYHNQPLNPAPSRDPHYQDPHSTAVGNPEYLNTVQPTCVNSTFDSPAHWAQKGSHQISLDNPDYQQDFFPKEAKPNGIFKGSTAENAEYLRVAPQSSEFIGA

Row | Compound | IC50 ([1]; A-549) [µM] | Cell viability % [2] [%] | IC50 [3] [µM] | IC50 [4, 8] [µM] | IC50 ([5]; MCF-7) [µM] | IC50 ([6]; Panc-1) [µM] | viability at 4 days, 50 µM [7] [%] | IC50 ([1]; Homo sapiens, A549) [µM] | IC50 ([3]; Homo sapiens) [µM] | IC50 (EGFR) [µM] | IC50 ([4]; Homo sapiens) [µM] | IC50 ([5]; Homo sapiens, MCF7) [µM] | IC50 ([6]; Homo sapiens, PANC-1) [µM] | Potency relative to 10e (GI50), fold less potent ([4]; GI50 vs 10e) [fold]
1 | 2-(Benzylthio)-1-((1-(4-bromophenyl)-1H-1,2,3-triazol-5-yl)methyl)-1H-benzimidazole [10c] | 0.055 ± 0.005 | 92 | 0.054 ± 0.005 | 0.054 | 0.052 ± 0.005 | 0.054 ± 0.005 |  |  |  |  |  |  |  | 
2 | O=[N+]([O-])c1cccc(-n2cc(CSc3nc4ccccc4[nH]3)nn2)c1 [6e, 2-(((1-(3-Nitrophenyl)-1H-1,2,3-triazol-4-yl)methyl)thio)-1H-benzimidazole] |  |  |  |  |  |  | 86 | 0.04 ± 0.003 | 0.038 ± 0.003 | 0.089 ± 0.006 | 0.038 | 0.036 ± 0.003 | 0.038 ± 0.003 | 
3 | Cc1ccc(-n2cc(CSc3nc4ccccc4[nH]3)nn2)cc1 [6f, 2-(((1-(p-Tolyl)-1H-1,2,3-triazol-4-yl)methyl)thio)-1H-benzimidazole] |  |  |  |  |  |  | 90 | 0.081 ± 0.007 | 0.082 ± 0.007 |  | 0.08 | 0.078 ± 0.007 | 0.08 ± 0.007 | 
4 | Clc1ccc(-n2cc(CSc3nc4ccccc4[nH]3)nn2)cc1 [6b, 2-(((1-(4-Chlorophenyl)-1H-1,2,3-triazol-4-yl)methyl)thio)-1H-benzimidazole] |  |  |  |  |  |  | 87 | 0.047 ± 0.004 | 0.048 ± 0.004 |  | 0.047 | 0.045 ± 0.004 | 0.048 ± 0.004 | 
5 | Brc1ccc(-n2cc(CSc3nc4ccccc4[nH]3)nn2)cc1 [6c, 2-(((1-(4-Bromophenyl)-1H-1,2,3-triazol-4-yl)methyl)thio)-1H-benzimidazole] |  |  |  |  |  |  | 91 | 0.096 ± 0.009 | 0.094 ± 0.009 |  | 0.094 | 0.09 ± 0.008 | 0.096 ± 0.009 | 
6 | 2-(Benzylthio)-1-((1-(p-tolyl)-1H-1,2,3-triazol-5-yl)methyl)-1H-benzimidazole [10f] | 0.066 ± 0.006 | 89 | 0.065 ± 0.006 | 0.065 | 0.063 ± 0.006 | 0.065 ± 0.006 |  |  |  |  |  |  |  | 
7 | C#Cc1cccc(Nc2ncnc3cc(OCCOC)c(OCCOC)cc23)c1 [Erlotinib, reference compound] |  |  |  |  |  |  |  |  |  |  | 0.033 |  |  | 
8 | c1ccc(-n2cc(CSc3nc4ccccc4[nH]3)nn2)cc1 [6a, 2-(((1-Phenyl-1H-1,2,3-triazol-4-yl)methyl)thio)-1H-benzimidazole] |  |  |  |  |  |  | 84 | 0.089 ± 0.008 | 0.088 ± 0.008 |  | 0.088 | 0.085 ± 0.007 | 0.089 ± 0.008 | 
9 | 2-(Benzylthio)-1-((1-phenyl-1H-1,2,3-triazol-5-yl)methyl)-1H-benzimidazole [10a] | 0.059 ± 0.005 | 87 | 0.06 ± 0.005 | 0.059 | 0.056 ± 0.005 | 0.06 ± 0.005 |  |  |  |  |  |  |  | 
10 | O=[N+]([O-])c1ccc(-n2cc(Cn3c(SCc4ccccc4)nc4ccccc43)nn2)cc1 [10d] |  |  |  |  |  |  | 89 | 0.037 ± 0.003 | 0.038 ± 0.003 | 0.086 ± 0.006 | 0.036 | 0.034 ± 0.003 | 0.036 ± 0.003 | 1.5
11 | O=[N+]([O-])c1ccc(-n2cc(CSc3nc4ccccc4[nH]3)nn2)cc1 [6d, 2-(((1-(4-Nitrophenyl)-1H-1,2,3-triazol-4-yl)methyl)thio)-1H-benzimidazole] |  |  |  |  |  |  | 93 | 0.085 ± 0.007 | 0.086 ± 0.008 |  | 0.085 | 0.083 ± 0.007 | 0.086 ± 0.008 | 
12 | COc1ccc(-n2cc(Cn3c(SCc4ccccc4)nc4ccccc43)nn2)cc1 [10g] |  |  |  |  |  |  | 90 | 0.034 ± 0.003 | 0.035 ± 0.003 | 0.082 ± 0.005 | 0.034 | 0.032 ± 0.003 | 0.034 ± 0.003 | 
13 | NS(=O)(=O)c1ccc(-n2cc(Cn3c(SCc4ccccc4)nc4ccccc43)nn2)cc1 [10i] |  |  |  |  |  |  | 91 | 0.044 ± 0.004 | 0.045 ± 0.004 |  | 0.043 | 0.042 ± 0.004 | 0.044 ± 0.004 | 
14 | COc1cccc(-n2cc(CSc3nc4ccccc4[nH]3)nn2)c1 [6h, 2-(((1-(3-Methoxyphenyl)-1H-1,2,3-triazol-4-yl)methyl)thio)-1H-benzimidazole] |  |  |  |  |  |  | 91 | 0.069 ± 0.006 | 0.068 ± 0.006 |  | 0.068 | 0.066 ± 0.006 | 0.069 ± 0.006 | 
15 | 2-(Benzylthio)-1-((1-(4-chlorophenyl)-1H-1,2,3-triazol-5-yl)methyl)-1H-benzimidazole [10b] | 0.048 ± 0.004 | 86 | 0.048 ± 0.004 |  | 0.044 ± 0.003 | 0.048 ± 0.004 |  |  |  |  |  |  |  | 
16 | COc1ccc(-n2cc(CSc3nc4ccccc4[nH]3)nn2)cc1 [6g, 2-(((1-(4-Methoxyphenyl)-1H-1,2,3-triazol-4-yl)methyl)thio)-1H-benzimidazole] |  |  |  |  |  |  | 89 | 0.072 ± 0.007 | 0.074 ± 0.007 |  | 0.072 | 0.069 ± 0.006 | 0.072 ± 0.007 | 
17 | 2-(Benzylthio)-1-((1-(3-methoxyphenyl)-1H-1,2,3-triazol-5-yl)methyl)-1H-benzimidazole [10h] | 0.076 ± 0.007 | 89 | 0.076 ± 0.007 | 0.075 | 0.072 ± 0.007 | 0.076 ± 0.007 |  |  |  |  |  |  |  | 
